From patent US5141960A, “Tricyclic glycinamide derivatives as anti-convulsants” (G. D. Searle & Co., priority 1991, dated 1992)

Experiments:
[1] = system: convulsions and death induced by 3-mercaptopropionic acid; assay: 3-Mercaptopropionic acid (3-MPA) induced convulsions; type: in vivo, male Swiss albino mice (CD1); details: for 3-MPA score: total number of mice protected for two groups of 5 animals, 30 min: 30 min before convulsions induced; for activity as inhibitors of tonic convulsions: overall, 3-MPA induced, oral, mice
Method: (§1) Treatment of a mammal afflicted by or susceptible to certain CNS disorders is accomplished by administration of a therapeutically-effective amount of a compound of Formula I. In particular, compounds 1-3 of Table 1 were evaluated by in vitro and in vivo animal model assays to determine the pharmacological properties of such compounds and their suitability for use as therapeutic drugs in humans. These biological assays, as described below, consisted of prevention of induced convulsions in mice, a TCP binding study in rat brain, determination of acute toxicity in mice and an animal behavior assay. Except as otherwise specified, the animals used in the in vivo test were male Swiss albino mice of weight 22 to 33 g [CD1, Charles River, France], housed in groups of 10 on a 12-hour dark-light cycle for at least one week and fasted overnight prior to testing.
Compounds of Formula I were examined as inhibitors of convulsions and death induced by the convulsant agent 3-mercaptopropionic acid (3-MPA, 120 mg/kg subcutaneously) [W. van Dorsser, D. Barris, A. Cordi and J. Roba, Arch. Int. Pharmacodyn., 266, 239-249 (1983)]. The compounds of the invention were administered orally at a dosage of either 100 mg/kg or 30 mg/kg in a volume of 10 ml/kg each to 5 mice, at intervals of 30 minutes or 2 hours before convulsions were induced. The number of mice protected against tonic convulsions and the number of dead mice were noted. Results are given in Table II as a score which represents the total number of mice protected for two groups of 5 animals (3-MPA).

[2] = target: TCP (1-[1-(2-thienyl)cyclohexyl]piperidine) binding in rat brain synaptic membranes (SPM); assay: TCP binding study; details: 2 nM tritiated TCP, pH 7.4, 25° C., 60 min
Method: The effect of compounds of Formula I on TCP (1-[1-(2-thienyl)cyclohexyl]piperidine) binding was measured in rat brain synaptic membranes (SPM) prepared by known methods [J. B. Monahan & J. Michel; J. Neurochem., 48, 1699-1708 (1987)]. Prior to their use in the binding assay, frozen SPM were thawed, then diluted twenty fold with 50 mM Tris/acetate [pH 7.4, containing 0.04% (v/v) Triton X-100], incubated for 30 min. at 37° C. and centrifuged at 95,000 xg for 15 min. The Triton X-100 treated SPM were washed with 5 mM Tris/HCl (pH 7.4) and centrifuged a total of six times. Compound of the invention was incubated at differing concentrations with SPM (0.2-0.4 mg protein) and 2 nM tritiated TCP, in a total volume of 0.5 ml of 5 mM Tris/HCl buffer (pH 7.4) at 25° C. for 60 min. The samples were filtered through glass fiber filters (Schleicher & Schuell #32) which had been pretreated with 0.05% (v/v) polyethyleneimine, washed with 2 ml of ice-cold 5 mM Tris/HCl buffer, and then counted on a Beckman LS 5800 liquid scintillation counter with automatic corrections for quenching and counting efficiency. Inhibition of TCP binding was measured as a decrease in basal binding. […] TCP binding inhibition values (IC50) were calculated using logit-log analysis and calculations and regression analysis were performed using templates developed for Lotus 123 by known methods [L. M. Pullan, Computer Appli. […]

[3] = Acute toxicity (LD50, oral); design: species or system male mice; details: mouse, in vivo, mice, mortality over 15 days
Method: as §1
The acute toxicity was determined after oral administration of the test compound to mice. […] Doses used in the test were determined by observing toxic effects on the mice, which doses varied from 3,000 mg/kg down to about 3 mg/kg. The mortality was recorded over a period of 15 days. The LD50 result in Table II was calculated according to published methods [Lichtfield and Wilcoxon, J. Pharmacol. Exp. Ther., 96, 99 (1949)] and is expressed in mg of test compound per kilogram of mouse body weight.

[4] = design: species or system mice; details: mouse, in vivo
Method: as §1
Behavioral effect of compounds of the invention on animals were determined by observations taken at 5 to 6 hours and at 24 hours after administration of compounds of the invention. Determinations were made based on a method derived from that of S. Irwin [See R. A. Turner, Screening Methods in Pharmacology, Chapter 3, pages 22-34, Academic Press, N.Y. (1965)]. If an anomaly were noted, the observation was extended and smaller doses were tested. […]

[5] = compound orally at 100 mg/kg or 30 mg/kg, 3-MPA 120 mg/kg s.c.

Row | Compound | 3-MPA score: total number of mice protected for two groups of 5 animals, 30 min [1, 5] | 3-MPA score: total number of mice protected for two groups of 5 animals, 2 hrs ([1]; compound orally at 100 mg/kg or 30 mg/kg, 2 hours before convulsions induced, 3-MPA 120 mg/kg s.c.) | activity as inhibitors of tonic convulsions [1] | IC50 [2] [µM] | LD50 at 360 h [3] [mg/kg] | Behavior: sedation (SED), dose at which the behavior is observed [4] [mg/kg] | Behavior: convulsions (CON), dose at which the behavior is observed [4] [mg/kg]
1 | NC(=O)CNC1c2ccccc2CCc2ccccc21 [Compound 1, 2-(2,3-6,7-dibenzocycloheptanylamino)acetamide] | 10 | 10 | very good activity | 38 | 780 | 300 | –
2 | NC(=O)CNC1c2ccccc2C=Cc2ccccc21 [Compound 2, 2-(2,3-6,7-dibenzocyclohept-4-enylamino)acetamide] | 3 | – | – | – | – | – | 1000
3 | NC(=O)CNC1c2ccccc2CSc2ccccc21 (stereo not shown) [Compound 3, 2-(2,3-6,7-dibenzo-4-thiacycloheptanylamino)acetamide] | 10 | – | very good activity | – | – | – | –
